The record followed here is patent publication US9308200B2, “Dry powder formulation comprising a phosphodiesterase inhibitor” (CHIESI FARMACEUTICI S.p.A., priority 2010, dated 2016).

In the test the test system is OVA-induced eosinophilia in BALF. The experiment in a line: Acute model of lung inflammation: OVA-induced eosinophilia in BALF of sensitized rats. Type of test: in vivo. The settings on record: male Brown-Norway rats; micronized C2 blended with lactose, intratracheal single dose 2 hours before antigen aerosol; range in brackets 0.016 to 0.051. The method, then:
The potency of one of the preferred compounds of the present invention was evaluated in vivo in an acute model of lung inflammation following a method described in Eur. J. Pharmacol., 2002 Feb. 22; 437(3):187-94 (which is incorporated herein by reference in its entirety), with minor modifications. Briefly, male Brown-Norway rats (150-200 g) were sensitized by intraperitoneal injection of a suspension containing ovalbumin (OVA, 1 mg/rat) and Al(OH)3 (100 mg/rat) in 1 mL of saline for 3 consecutive days. Two-three weeks later, the airway inflammation was induced by inhaled antigen (OVA, 1% in saline). Vehicle-control treated animals were exposed to an aerosol of saline. […] For the detection of inhibitory potency, micronized compound C2 was blended with lactose at different concentrations and administered by the intratracheal route as single dose 2 hours before antigen aerosol.
A dose-response curve of the inhibitory effect of the test compound on OVA-induced eosinophilia in BALF was performed and the ED50 dose of compound C2 was taken as a measure of potency in this bioassay.

In the case of `CS(=O)(=O)Nc1ccc(C(=O)OC(Cc2c(Cl)c[n+]([O-])cc2Cl)c2ccc(OC(F)F)c(OCC3CC3)c2)cc1OCC1CC1` (single isomer, unassigned; (-)) [Compound C2, (−)-3-Cyclopropylmethoxy-4-methanesulfonylamino-benzoic acid 1-(3-cyclopropylmethoxy-4-difluoromethoxy-phenyl)-2-(3,5-dichloro-1-oxy-pyridin-4-yl)-ethyl ester], the “ED50 dose, inhibition of OVA-induced eosinophilia in BALF” value came to 0.028 µmol/kg.
